Measurements as given in ChEMBL document CHEMBL1201862, “PubChem BioAssay data set” (2004).
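Growth conditions: 96-well plates. Treatment: test compound, 48 hours, 5 concentrations. Analysis: linear interpolation between bracketing concentrations; unreached endpoints set to highest concentration. The concentration for 50% growth inhibition is given as GI50.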 Active and inactive are the calls of the source. Rule as the data show it: active = GI50 up to about 1.1 µM and inactive = higher.

What was measured:
Test in all cases: NCI-60 cell line screen, 48 h
KM12 = test system: KM12
UACC-62 = test system: UACC-62
SK-MEL-5 = test system: SK-MEL-5
OVCAR-5 = test system: OVCAR-5
M14 = test system: M14
SR = test system: SR
RXF 393 = test system: RXF 393
786-0 = test system: 786-0
HL-60 = test system: HL-60
MDA-MB-435 = test system: MDA-MB-435
NCI-H23 = test system: NCI-H23
COLO 205 = test system: COLO 205
TK-10 = test system: TK-10
HOP-62 = test system: HOP-62
Malme-3M = test system: Malme-3M
SK-MEL-28 = test system: SK-MEL-28
SF-295 = test system: SF-295
IGROV-1 = test system: IGROV-1
SW-620 = test system: SW-620
SF-268 = test system: SF-268

Measured: GI50

Clc1ncc(C(Cl)(Cl)Cl)nc1-c1ccccc1
inactive: KM12 1.82 µM | UACC-62 2.56 µM | SK-MEL-5 12.2 µM | OVCAR-5 16.1 µM | M14 2.23 µM | SR 3.85 µM | RXF 393 1.64 µM | 786-0 1.95 µM | HL-60 2.7 µM | MDA-MB-435 1.77 µM | NCI-H23 2.24 µM | COLO 205 1.87 µM | TK-10 2.3 µM | HOP-62 2.26 µM | Malme-3M 5.14 µM | SK-MEL-28 3.79 µM | SF-295 3.63 µM | IGROV-1 2.4 µM | SW-620 4.21 µM | SF-268 2.19 µM

Cc1ccc(N2C(=O)CC(=O)N(NC(=O)C(C)Oc3ccccc3C)C2=S)cc1 (configuration not stated)
inactive: KM12 > 100 µM | UACC-62 > 100 µM | SK-MEL-5 > 100 µM | OVCAR-5 > 100 µM | M14 > 100 µM | SR 57.1 µM | RXF 393 > 100 µM | 786-0 > 100 µM | HL-60 > 100 µM | MDA-MB-435 > 100 µM | NCI-H23 > 100 µM | COLO 205 > 100 µM | TK-10 > 100 µM | HOP-62 > 100 µM | Malme-3M > 100 µM | SK-MEL-28 > 100 µM | SF-295 > 100 µM | IGROV-1 > 100 µM | SW-620 > 100 µM | SF-268 > 100 µM

C(=C/c1nnnn1-c1ccccc1)/Nc1ccccc1
inactive: KM12 31.6 µM | UACC-62 20.2 µM | SK-MEL-5 14.5 µM | OVCAR-5 24.8 µM | M14 26.1 µM | SR > 10 µM | RXF 393 53 µM | 786-0 39.2 µM | HL-60 41.2 µM | MDA-MB-435 26.1 µM | NCI-H23 23.7 µM | COLO 205 33.7 µM | TK-10 34.4 µM | HOP-62 25.4 µM | Malme-3M 31.4 µM | SK-MEL-28 78.7 µM | SF-295 26.2 µM | IGROV-1 35.2 µM | SW-620 37.3 µM | SF-268 31.7 µM

Clc1ccc(-c2cc3nc4ccccc4nc3o2)cc1
inactive: KM12 > 100 µM | UACC-62 38.3 µM | SK-MEL-5 > 100 µM | OVCAR-5 > 100 µM | M14 > 100 µM | SR > 100 µM | RXF 393 32.5 µM | 786-0 37.1 µM | HL-60 > 100 µM | MDA-MB-435 > 100 µM | NCI-H23 > 100 µM | COLO 205 > 100 µM | TK-10 32.7 µM | Malme-3M > 100 µM | SK-MEL-28 > 100 µM | SF-295 58.7 µM | IGROV-1 62.8 µM | SW-620 > 100 µM | SF-268 63.8 µM

CC1(C)CNC(=O)C2(/C=N/C(C)(C)CNC(=O)C3(/C=N/1)CCCO3)CCCO2 (configuration not stated)
inactive: KM12 > 10 µM | UACC-62 > 10 µM | SK-MEL-5 > 10 µM | M14 > 10 µM | SR > 10 µM | RXF 393 > 10 µM | 786-0 > 10 µM | HL-60 > 10 µM | MDA-MB-435 > 10 µM | NCI-H23 > 10 µM | COLO 205 > 10 µM | TK-10 > 10 µM | HOP-62 > 10 µM | Malme-3M > 10 µM | SK-MEL-28 > 10 µM | SF-295 > 10 µM | IGROV-1 > 10 µM | SW-620 > 10 µM | SF-268 > 10 µM

CC1(C)CC(=O)c2c(nc3ccc4ccccc4c3c2-c2ccc(NC(=O)CCC(=O)Nc3ccc(-c4c5c(nc6ccc7ccccc7c46)CC(C)(C)CC5=O)cc3)cc2)C1
inactive: KM12 > 100 µM | SK-MEL-5 > 100 µM | OVCAR-5 > 100 µM | M14 > 100 µM | SR > 100 µM | RXF 393 > 100 µM | 786-0 > 100 µM | HL-60 > 100 µM | MDA-MB-435 > 100 µM | COLO 205 > 100 µM | TK-10 > 100 µM | HOP-62 > 100 µM | SK-MEL-28 > 100 µM | SF-295 > 100 µM | IGROV-1 > 100 µM | SW-620 > 100 µM | SF-268 > 100 µM

C[C@]12CC[C@H](O)CC1=CC[C@@H]1[C@@H]2CC[C@]2(C)/C(=N/OCCN3CCCC3)CC[C@@H]12
inactive: KM12 13.7 µM | UACC-62 15.5 µM | SK-MEL-5 14.6 µM | OVCAR-5 28.2 µM | SR 14.8 µM | RXF 393 15.1 µM | 786-0 18.1 µM | HL-60 7.74 µM | MDA-MB-435 15.8 µM | NCI-H23 14.1 µM | COLO 205 16 µM | TK-10 24.1 µM | HOP-62 21.3 µM | Malme-3M 14.1 µM | SK-MEL-28 16.5 µM | SF-295 19.4 µM | IGROV-1 16.2 µM | SW-620 16.4 µM | SF-268 53.2 µM

Cc1csc(NNC(N)=O)n1
inactive: KM12 > 100 µM | UACC-62 > 100 µM | SK-MEL-5 > 100 µM | OVCAR-5 > 100 µM | M14 > 100 µM | SR 25.6 µM | RXF 393 > 100 µM | 786-0 > 100 µM | HL-60 > 100 µM | MDA-MB-435 > 100 µM | NCI-H23 > 100 µM | COLO 205 > 100 µM | TK-10 > 100 µM | HOP-62 > 100 µM | SK-MEL-28 > 100 µM | SF-295 > 100 µM | IGROV-1 > 100 µM | SW-620 > 100 µM | SF-268 > 100 µM

CCOC(=O)CCC(C(=O)OCC)n1nc2ccc(Nc3c(C)[n+]([O-])c4ccc(Cl)cc4[n+]3[O-])cc2n1 (configuration not stated)
inactive: KM12 56.8 µM | UACC-62 26.6 µM | SK-MEL-5 21.8 µM | OVCAR-5 30.9 µM | M14 24.1 µM | SR 34.1 µM | RXF 393 13 µM | 786-0 16.5 µM | HL-60 38.2 µM | MDA-MB-435 30.2 µM | NCI-H23 21.5 µM | COLO 205 32.7 µM | TK-10 28.9 µM | HOP-62 17 µM | Malme-3M 30.1 µM | SF-295 16.8 µM | IGROV-1 42.4 µM | SW-620 33.7 µM | SF-268 12.2 µM

CN1CCN(c2ccc3nc(C4=C(O)C(=O)c5c(nc(CCl)n5C)C4=O)[nH]c3n2)CC1
inactive: KM12 9.71 µM | UACC-62 9.89 µM | SK-MEL-5 24.2 µM | OVCAR-5 14.2 µM | M14 9.4 µM | SR 31.8 µM | RXF 393 2.73 µM | 786-0 8.61 µM | HL-60 > 50 µM | MDA-MB-435 9.86 µM | NCI-H23 11.5 µM | COLO 205 10.3 µM | HOP-62 9.51 µM | Malme-3M 3.66 µM | SK-MEL-28 19.3 µM | SF-295 16.7 µM | IGROV-1 8.38 µM | SW-620 20 µM | SF-268 14.9 µM

CC(C)[Si](OC1=C(c2ccccc2)C(NC(=O)/C=C/c2ccc([N+](=O)[O-])cc2)CCC1)(C(C)C)C(C)C (configuration not stated)
inactive: KM12 > 100 µM | UACC-62 > 100 µM | SK-MEL-5 > 100 µM | OVCAR-5 > 100 µM | M14 > 100 µM | SR > 100 µM | RXF 393 > 100 µM | 786-0 > 100 µM | HL-60 > 100 µM | MDA-MB-435 > 100 µM | NCI-H23 > 100 µM | COLO 205 > 100 µM | TK-10 > 100 µM | HOP-62 > 100 µM | Malme-3M > 100 µM | SF-295 > 100 µM | IGROV-1 > 100 µM | SW-620 > 100 µM | SF-268 > 100 µM

Cc1nnc2cc(C(=O)O)c3ccccc3n2c1=O
inactive: UACC-62 > 10 µM | SK-MEL-5 > 10 µM | OVCAR-5 > 10 µM | M14 > 10 µM | SR > 10 µM | RXF 393 > 10 µM | 786-0 > 10 µM | HL-60 > 10 µM | MDA-MB-435 > 10 µM | NCI-H23 > 10 µM | COLO 205 > 10 µM | TK-10 > 10 µM | HOP-62 > 10 µM | Malme-3M > 10 µM | SK-MEL-28 > 10 µM | SF-295 > 10 µM | IGROV-1 > 10 µM | SW-620 > 10 µM | SF-268 > 10 µM

CCOc1cc(C2CC(c3ccc(NS(=O)(=O)c4cc([N+](=O)[O-])ccc4C)cc3)=NN2S(=O)(=O)c2cc([N+](=O)[O-])ccc2C)ccc1O (configuration not stated)
inactive: KM12 41.1 µM | SK-MEL-5 18.5 µM | OVCAR-5 > 100 µM | M14 34.1 µM | SR 32.4 µM | RXF 393 29 µM | 786-0 33.3 µM | HL-60 38.5 µM | MDA-MB-435 38.4 µM | NCI-H23 30.6 µM | COLO 205 37.4 µM | TK-10 36.4 µM | HOP-62 30.8 µM | Malme-3M 23.3 µM | SK-MEL-28 83 µM | SF-295 31.9 µM | IGROV-1 18.5 µM | SW-620 64.7 µM | SF-268 39.7 µM

Cc1ccc(C(=O)c2[nH]c(Nc3ccc(Cl)cc3)c(C(=S)Nc3ccccc3)c2N)cc1
inactive: KM12 5.26 µM | UACC-62 14.4 µM | OVCAR-5 11 µM | M14 12.9 µM | SR 2.05 µM | RXF 393 4.94 µM | 786-0 2.74 µM | HL-60 44.4 µM | MDA-MB-435 6.68 µM | NCI-H23 3.14 µM | COLO 205 1.45 µM | TK-10 5.36 µM | HOP-62 4.41 µM | Malme-3M 4.17 µM | SK-MEL-28 4.21 µM | SF-295 2.13 µM | IGROV-1 4.41 µM | SW-620 11.5 µM | SF-268 5.78 µM
